# Source: ChEMBL document CHEMBL1201862, “PubChem BioAssay data set” (2004)
#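 Where inhibition never reached the appropriate level, the endpoint shown equals the highest concentration tested. Otherwise, values were interpolated linearly from a five-concentration, 48-hour dose response in 96-well plates. GI50 = concentration required for 50% inhibition of growth.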 Active and inactive are the calls of the source. No stated cut-off is given here; in the data, active = GI50 up to about 1.1 µM and inactive = higher.
# Columns and labels:
# Experiment in all cases: DTP human tumour cell line panel, 48 h
# DU-145 = system: DU-145
# SW-620 = system: SW-620
# HOP-92 = system: HOP-92
# RXF 393 = system: RXF 393
# MDA-MB-231 = system: MDA-MB-231
# T47D = system: T47D
# NCI-H522 = system: NCI-H522
# SNB-75 = system: SNB-75
# EKVX = system: EKVX
# RPMI-8226 = system: RPMI-8226
# PC-3 = system: PC-3
# HCT-116 = system: HCT-116
# M14 = system: M14
# Hs-578T = system: Hs-578T
# A549 = system: A549
# CCRF-CEM = system: CCRF-CEM
# Malme-3M = system: Malme-3M
# SR = system: SR
# SNB-19 = system: SNB-19
Compound,GI50 (DU-145),GI50 (SW-620),GI50 (HOP-92),GI50 (RXF 393),GI50 (MDA-MB-231),GI50 (T47D),GI50 (NCI-H522),GI50 (SNB-75),GI50 (EKVX),GI50 (RPMI-8226),GI50 (PC-3),GI50 (HCT-116),GI50 (M14),GI50 (Hs-578T),GI50 (A549),GI50 (CCRF-CEM),GI50 (Malme-3M),GI50 (SR),GI50 (SNB-19)
Cc1cccc(CNc2[nH]cnc3nncc2-3)c1,> 100 µM (inactive),> 100 µM (inactive),40.5 µM (inactive),> 100 µM (inactive),> 100 µM (inactive),78.3 µM (inactive),56.5 µM (inactive),53.5 µM (inactive),37.2 µM (inactive),44.3 µM (inactive),> 100 µM (inactive),> 100 µM (inactive),> 100 µM (inactive),> 100 µM (inactive),> 100 µM (inactive),> 100 µM (inactive),> 100 µM (inactive),43.5 µM (inactive),> 100 µM (inactive)
Cn1c(=O)c2nc(COCc3nc4c(=O)n(C)c(=O)n(C)c4[nH]3)[nH]c2n(C)c1=O,> 100 µM (inactive),> 100 µM (inactive),> 100 µM (inactive),> 100 µM (inactive),> 100 µM (inactive),> 100 µM (inactive),> 100 µM (inactive),> 100 µM (inactive),> 100 µM (inactive),> 100 µM (inactive),> 100 µM (inactive),> 100 µM (inactive),> 100 µM (inactive),> 100 µM (inactive),> 100 µM (inactive),> 100 µM (inactive),> 100 µM (inactive),> 100 µM (inactive),> 100 µM (inactive)
Cc1cc(C)n(C(=CC(=O)C(Cl)Cl)n2nc(C)cc2C)n1,5.38 µM (inactive),3.88 µM (inactive),9.31 µM (inactive),2.61 µM (inactive),2.38 µM (inactive),4.06 µM (inactive),1.79 µM (inactive),> 100 µM (inactive),,0.871 µM (active),11.4 µM (inactive),1.76 µM (inactive),2.83 µM (inactive),5.21 µM (inactive),21.7 µM (inactive),1.85 µM (inactive),4.35 µM (inactive),1.61 µM (inactive),10.7 µM (inactive)
c1ccc(CSCCC(SCc2ccccc2)SCc2ccccc2)cc1,> 10 µM (inactive),> 10 µM (inactive),9.66 µM (inactive),> 10 µM (inactive),> 10 µM (inactive),> 10 µM (inactive),> 10 µM (inactive),> 10 µM (inactive),> 10 µM (inactive),> 10 µM (inactive),> 10 µM (inactive),> 10 µM (inactive),> 10 µM (inactive),> 10 µM (inactive),> 10 µM (inactive),> 10 µM (inactive),> 10 µM (inactive),> 10 µM (inactive),> 10 µM (inactive)
CC1C2CC(C(S(=O)(=O)N3CCOCC3)/C2=N\O)C1(C)C (stereo not drawn),> 100 µM (inactive),> 100 µM (inactive),> 100 µM (inactive),> 100 µM (inactive),> 100 µM (inactive),> 100 µM (inactive),> 100 µM (inactive),> 100 µM (inactive),> 100 µM (inactive),> 100 µM (inactive),> 100 µM (inactive),> 100 µM (inactive),> 100 µM (inactive),> 100 µM (inactive),> 100 µM (inactive),> 100 µM (inactive),> 100 µM (inactive),> 100 µM (inactive),> 100 µM (inactive)
Cc1cc(S(=O)(=O)/N=C(\NN)NCC(=O)NN)c(S)cc1Cl,> 10 µM (inactive),> 10 µM (inactive),> 10 µM (inactive),> 10 µM (inactive),> 10 µM (inactive),> 10 µM (inactive),> 10 µM (inactive),> 10 µM (inactive),> 10 µM (inactive),> 10 µM (inactive),> 10 µM (inactive),> 10 µM (inactive),> 10 µM (inactive),> 10 µM (inactive),> 10 µM (inactive),> 10 µM (inactive),> 10 µM (inactive),> 10 µM (inactive),> 10 µM (inactive)
COc1cc(C2SC(=N)Nc3c2c(C)nn3C(=O)c2ccc(Cl)cc2)cc(OC)c1OC (stereo not drawn),> 10 µM (inactive),> 10 µM (inactive),> 10 µM (inactive),> 10 µM (inactive),> 10 µM (inactive),> 10 µM (inactive),> 10 µM (inactive),> 10 µM (inactive),> 10 µM (inactive),> 10 µM (inactive),> 10 µM (inactive),> 10 µM (inactive),> 10 µM (inactive),> 10 µM (inactive),> 10 µM (inactive),> 10 µM (inactive),> 10 µM (inactive),> 10 µM (inactive),> 10 µM (inactive)
O=C(CCCN1CCC2(CC1)CC(c1ccccc1)OC2=O)c1ccc(F)cc1 (stereo not drawn),64.9 µM (inactive),40.1 µM (inactive),26.9 µM (inactive),66.2 µM (inactive),84.5 µM (inactive),16.2 µM (inactive),> 100 µM (inactive),16.7 µM (inactive),> 100 µM (inactive),30.1 µM (inactive),40.2 µM (inactive),33.8 µM (inactive),15.8 µM (inactive),40.8 µM (inactive),> 100 µM (inactive),41.6 µM (inactive),17.8 µM (inactive),19.6 µM (inactive),39.2 µM (inactive)
COc1cc(OC)c2c(c1)OC(c1cccnc1)C(c1ccccc1)C2=O (stereo not drawn),> 100 µM (inactive),> 100 µM (inactive),> 100 µM (inactive),> 100 µM (inactive),> 100 µM (inactive),52 µM (inactive),72.1 µM (inactive),> 100 µM (inactive),> 100 µM (inactive),> 100 µM (inactive),93.3 µM (inactive),> 100 µM (inactive),> 100 µM (inactive),49.5 µM (inactive),> 100 µM (inactive),> 100 µM (inactive),> 100 µM (inactive),> 100 µM (inactive),> 100 µM (inactive)
C=C1C(=O)O[C@H]2[C@H]3O[C@@H](C[C@@H]12)[C@@]1(C)CC[C@H](O1)[C@H](C)CCC[C@H]3C,1.52 µM (inactive),1.46 µM (inactive),1.43 µM (inactive),2.15 µM (inactive),1.65 µM (inactive),2.21 µM (inactive),1.42 µM (inactive),1.63 µM (inactive),1.44 µM (inactive),0.512 µM (active),1.61 µM (inactive),1.04 µM (active),,2.64 µM (inactive),2.16 µM (inactive),0.399 µM (active),1.72 µM (inactive),0.148 µM (active),10.1 µM (inactive)
COc1cc(/C=N/NC(=O)c2c(Cl)c(Cl)c(Cl)c(Cl)c2-c2nc3cc(C(=O)c4ccccc4)ccc3[nH]2)ccc1O,73.8 µM (inactive),34.5 µM (inactive),76.9 µM (inactive),21.6 µM (inactive),26.8 µM (inactive),22.6 µM (inactive),22.1 µM (inactive),42.1 µM (inactive),63.8 µM (inactive),30.8 µM (inactive),35.2 µM (inactive),36.1 µM (inactive),34.3 µM (inactive),60 µM (inactive),42.1 µM (inactive),23 µM (inactive),54.8 µM (inactive),11.5 µM (inactive),62.1 µM (inactive)
COc1ccc2c(c1OC)OCC(CN(C)C)C2=O (stereo not drawn),18.8 µM (inactive),7.45 µM (inactive),4.99 µM (inactive),16.6 µM (inactive),18.8 µM (inactive),19.9 µM (inactive),0.187 µM (active),22.3 µM (inactive),25.2 µM (inactive),2.42 µM (inactive),18.7 µM (inactive),17.4 µM (inactive),17.3 µM (inactive),39.1 µM (inactive),26.1 µM (inactive),2.15 µM (inactive),18.5 µM (inactive),1.87 µM (inactive),> 100 µM (inactive)
CN(C)c1nc2n(CCO)ccnc-2c(=O)n1,> 100 µM (inactive),> 100 µM (inactive),> 100 µM (inactive),> 100 µM (inactive),> 100 µM (inactive),> 100 µM (inactive),> 100 µM (inactive),> 100 µM (inactive),> 100 µM (inactive),> 100 µM (inactive),> 100 µM (inactive),> 100 µM (inactive),> 100 µM (inactive),> 100 µM (inactive),> 100 µM (inactive),> 100 µM (inactive),> 100 µM (inactive),> 100 µM (inactive),> 100 µM (inactive)
O=c1oc2cc(O)ccc2cc1-c1nc2ccccc2o1,33.3 µM (inactive),40.3 µM (inactive),26.7 µM (inactive),< 0.01 µM (active),35.6 µM (inactive),1.07 µM (active),17.1 µM (inactive),63.8 µM (inactive),28.5 µM (inactive),24.3 µM (inactive),42.4 µM (inactive),41.6 µM (inactive),36.3 µM (inactive),33.4 µM (inactive),29.5 µM (inactive),8.87 µM (inactive),39.5 µM (inactive),30.9 µM (inactive),29.1 µM (inactive)
CCc1c(Cc2cc(C)cc(C)c2)n2c(nc1=O)SCC2CBr (stereo not drawn),23.1 µM (inactive),> 50 µM (inactive),9.93 µM (inactive),> 50 µM (inactive),19.6 µM (inactive),22.6 µM (inactive),27.4 µM (inactive),15.5 µM (inactive),27 µM (inactive),> 50 µM (inactive),> 50 µM (inactive),> 50 µM (inactive),> 50 µM (inactive),> 50 µM (inactive),> 50 µM (inactive),12.6 µM (inactive),12.9 µM (inactive),> 50 µM (inactive),23.1 µM (inactive)
